Several values for one entry are separate records, joined by “and”; a condition that tells them apart may be missing. Equal entries are not always repeated. Structures can show the parent of a compound that is named as a salt. Where two headings read alike, the source gives them in different places.
Assays:
[1] = test system: autonomic ganglionic and central muscarinic receptors; experiment: Cholinergic stimulant activity and specificity; details: in words
[2] = test system: enzyme which desactivates acetylcholine; experiment: Stability to the enzyme which desactivates acetylcholine; format: in vitro ADME; details: in words
[3] = Biological activity of the cis-isomer; details: in words, cis/trans comparison
[4] = test system: Guinea pig ileum; experiment: Guinea pig ileum induced contraction in vitro, Table 1; format: cell-based; details: equipotent molar ratio relative to ACh
Text: (§1) cat mice cat Guinea pig ileum
(iv) induced contraction
(§2) **EPMR: equipotent molar ratio relative to ACh. nmole: nannomoles

[5] = test system: Oxotromorine induced tremors; experiment: Antagonism to oxotremorine induced tremors; format: in vivo, Mice; details: Mus musculus, sc
Experimental: (§3) *With 95% confidence limits (Litchfield and Wilcoxon, 1949).
(§4) ^+ R1 =R2 =.PHI.,HCl is injected 20 min. prior to […]

[6] = test system: SCG; experiment: SCG (cat), antagonism to McN-A-343 induced contraction of NM; format: in vivo
Text: |induced contraction of NM

[7] = test system: Oxotromorine induced salivation; experiment: Antagonism to oxotremorine induced salivation; format: in vivo, Mice; details: Mus musculus, sc
Experimental: as §3
**Oxotromorine, 170 μg/kg, ip (1.15 ED50) induced salivation.
as §4

[8] = Anticholinergic activity; details: in words
[9] = test system: mice; experiment: Tremors (tremorigenic activity) in mice, Table 2; format: in vivo; details: Mus musculus, ip, read-out: Tremors ED50 (ip)
Text: (§5) Acute Toxicity, tremorigenic and sialigenic
(§6) *with 95% confidence limits, Litchfield & Wilcoxon, (1949).

[10] = Acute toxicity in mice, Table 2; details: mouse, in vivo
Text: as §6

[11] = test system: mice; experiment: Induced tremors in mice, Table 1; format: in vivo; details: Mus musculus, ip, read-out: Induced tremors ED50 (ip)
Text: as §1
(§7) *with 95% confidence limits (Litchfield et al, 1949)

[12] = test system: mice; details: Chiang & Leaders, 1971; cited from earlier work
[13] = test system: mice; experiment: Salivation (sialigenic activity) in mice, Table 2; format: in vivo; details: Mus musculus, ip, read-out: Salivation ED50 (ip)
Text: as §5, §6
**Chiang & Leaders, 1971

[14] = test system: blood pressure; experiment: Fall in blood pressure in vivo, Table 1; parameters: species or system cat; details: iv; for ED50: Felis catus, read-out: Fall blood pressure ED50 (iv); for Fall blood pressure EPMR: equipotent molar ratio relative to ACh
Text: as §1, §7, §2

[15] = test system: Physostigmine induced lethality; experiment: Antagonism to physostigmine induced lethality; format: in vivo, Mice; details: Mus musculus, sc
Text: as §3

[16] = test system: mydriatic activity; experiment: Relative mydriatic activity, Table 3; format: in vivo; details: atropine sulphate = 1
[17] = target: T1, Guinea-pig ileum (Cavia porcellus, UniProt H0W1Z3); experiment: Antagonism in guinea-pig ileum (log Ki), Table 3; format: cell-based; details: printed as log Ki (negative)
T1 construct: Guinea-pig ileum, log Ki; from tissue; host or cells: guinea-pig ileum
T1 sequence (H0W1Z3 1-590): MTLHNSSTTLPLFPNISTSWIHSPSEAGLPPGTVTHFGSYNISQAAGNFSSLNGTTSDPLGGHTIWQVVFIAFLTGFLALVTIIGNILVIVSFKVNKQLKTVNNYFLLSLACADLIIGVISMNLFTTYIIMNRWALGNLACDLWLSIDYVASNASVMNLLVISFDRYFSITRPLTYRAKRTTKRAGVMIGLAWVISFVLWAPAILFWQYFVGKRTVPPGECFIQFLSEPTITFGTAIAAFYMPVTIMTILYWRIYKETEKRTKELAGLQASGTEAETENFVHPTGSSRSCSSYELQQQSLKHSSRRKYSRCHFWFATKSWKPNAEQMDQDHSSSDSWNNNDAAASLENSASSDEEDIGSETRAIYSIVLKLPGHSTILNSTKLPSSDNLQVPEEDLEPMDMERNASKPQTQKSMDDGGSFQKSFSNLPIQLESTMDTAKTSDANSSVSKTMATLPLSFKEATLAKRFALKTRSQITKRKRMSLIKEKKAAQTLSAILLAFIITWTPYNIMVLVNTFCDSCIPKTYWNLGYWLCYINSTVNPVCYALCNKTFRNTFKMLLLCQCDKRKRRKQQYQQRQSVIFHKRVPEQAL

[18] = LD50 in mice, Table 3; details: mouse, in vivo, sc
[19] = test system: Oxotromorine induced tremors and salivation; experiment: CNS/PNS activity (ED50 blockade of tremors / ED50 blockade of salivation); format: in vivo, Mice; details: ED50 for blockade of tremors divided by ED50 for blockade of salivation; 95% confidence limits
Text: as §3

With `CC1OCC2(CN3CCC2CC3)O1` (stereo not drawn) [Example 1, 2-Methyl spiro (1,3-dioxolane-4,3')Quinuclidine] the cholinergic stimulant activity [1] was “specific and powerful cholinergic stimulant”, the “specificity towards autonomic ganglionic and central muscarinic receptors” value [1] was “high degree of specificity” and the “destruction by the enzyme which desactivates acetylcholine” value [2] was “not destroyed by the enzyme which desactivates acetylcholine”.
With `CC1OCC2(CN3CCC2CC3)O1` (single isomer, unassigned; isomer 2) [cis-isomer, 2-methyl spiro (1,3-dioxolane-4,3') quinuclidine] the “biological activity of the cis-isomer” value [3] was “greater biological activity”.
For `CC(=O)OC(C)C[N+](C)(C)C` (stereo not drawn) [Acetyl-β-methyl choline], the “Guinea pig ileum induced contraction EPMR” value [4] was 3.6.
With `CN1[C@@H]2CC[C@H]1CC(OC(=O)C(CO)c1ccccc1)C2` (stereo partly drawn) [Atropine Sulphate, reference compound] the ED50 [5] was 1 µmol/kg, the “antagonism to McN-A-343 induced contraction of NM ED50 (ia)” value [6] was 1.4 µmol and the ED50 [7] was 0.039 µmol/kg.
With `c1ccc(C2(c3ccccc3)OCC3(CN4CCC3CC4)O2)cc1` (stereo not drawn) [Example 3, 2,2-diphenyl spiro (1,3-dioxolane-4,3')quinuclidine] the anticholinergic activity [8] was “powerful anticholinergic agent”.
For `CC(=O)OC1CN2CCC1CC2` (stereo not drawn) [3-Acetoxyquinuclidine], the ED50 [9] was 7.5 mg/kg and 36.5 µmol/kg, the LD50 ([10]; sc) was 112 mg/kg and the ED50 [11] was 7.5 mg/kg and 36.5 µmol/kg. The “Salivation ED50 (ip)” value [12] was 2.9 mg/kg, the “Guinea pig ileum induced contraction EPMR” value [4] was 14 and the ED50 [13] was 1.8 mg/kg and 8.8 µmol/kg. The ED50 [14] was 0.0002 mg/kg and 0.001 µmol/kg and the “Fall blood pressure EPMR” value ([14]; cat) was 6.25.
In the case of `CC1OCC2(CN3CCC2CC3)O1` (stereo not drawn) [I,R1 =H,R2 =-CH3.HCl, 2-methyl spiro (1,3-dioxolane-4,3') quinuclidine], the ED50 ([9]; mice) is reported as 4.5 mg/kg and 20.5 µmol/kg, the LD50 ([10]; sc) is reported as 220 mg/kg and the ED50 ([11]; mice) is reported as 4.5 mg/kg and 20.5 µmol/kg. The “Guinea pig ileum induced contraction EPMR” value [4] was 240, the ED50 ([13]; mice) was 3 mg/kg and 13.7 µmol/kg and the ED50 ([14]; cat) was 0.0066 mg/kg and 0.0301 µmol/kg. For the same compound, the “Fall blood pressure EPMR” value ([14]; cat) was 188.
Work on `CC(=O)OCC[N+](C)(C)C` [Acetylcholine] yielded an ED50 ([14]; cat) of 0.00016 µmol/kg.
In the case of `c1ccc(C2(c3ccccc3)OCC3(CN4CCC3CC4)O2)cc1` (stereo not drawn) [I,R1 =R2 =phenyl,HCl, 2,2-diphenyl spiro (1,3-dioxolane-4,3')quinuclidine], the ED50 [15] is reported as 0.2 µmol/kg, the ED50 [5] is reported as 0.31 µmol/kg and the Relative mydriatic activity [16] is reported as 1.5. For the same compound, the Ki [17] was 0.251 nM, the “antagonism to McN-A-343 induced contraction of NM ED50 (ia)” value [6] was 0.5 µmol and the LD50 [18] was 40 mg/kg. The ED50 [7] was 0.28 µmol/kg and the CNS/PNS activity [19] was 1.1(0.77-1.56).
For `O=C1CCCN1CC#CCN1CCCC1` [Oxotremorine], the ED50 ([9]; mice) was 0.14 mg/kg and 0.73 µmol/kg, the LD50 ([10]; ip) was 5 mg/kg and the ED50 ([13]; mice) was 0.12 mg/kg and 0.63 µmol/kg.
